In patent US20190194179A1, “ANTIBIOTIC COMPOUNDS” (DISCUVA LTD., priority 2016, published 2019):

Tested on: Neisseria gonorrhoeae
Test: EC50 determination: plate-based broth growth assay (absorbance at 600 nm) of Neisseria gonorrhoeae
Format: cell-based
Details: absorbance 600 nm after 20 hours at 37° C./5% CO2, read-out: IC50 (Inhibitory concentration) against Neisseria gonorrhoeae
Protocol: Actively growing Neisseria gonorrhoeae on GC agar (based on; Spence et. al. (2008): Curr. Protoc. Microbiol. 8:4A.1.1-4A.1.26) plates are harvested and transferred to GC broth (based on; Spence et al (2008): Curr. Protoc. Microbiol. 8:4A.1.1-4A.1.26) to generate a liquid stock. This culture is allowed to establish and grow to mid-log phase (at 37° C./5% CO2), finally this culture is diluted (˜10^5 cells/ml) to generate a seed inoculum to establish plate-based broth assays. EC50 values were determined by assaying growth (absorbance read at 600 nm, after 20 hours at 37° C./5% CO2) of Neisseria gonorrhoeae across a 10-point dilution series of the test compound. The EC50 value is determined from transformed data to identify the concentration of compound giving a 50% response relative to control samples (no compound).

Compound	IC50 [µM]
CN1CCc2nc(Nc3nc4cc(C(F)(F)F)ccc4o3)oc2C1 [Example 155, 5-Methyl-N-(5-(trifluoromethyl)benzo[d]oxazol-2-yl)-4,5,6,7-tetrahydrooxazolo[5,4-c]pyridin-2-amine]	≤ 1
Clc1cccc2nc(Nc3nnc(CN4CCCC4)[nH]3)oc12 [Example 131, 7-Chloro-N-(5-(pyrrolidin-1-ylmethyl)-4H-1,2,4-triazol-3-yl)benzo[d]oxazol-2-amine]	≤ 1
FC(F)(F)c1ccc2[nH]c(Nc3nnco3)nc2c1 [Example 68, N-(5-(Trifluoromethyl)-1H-benzo[d]imidazol-2-yl)-1,3,4-oxadiazol-2-amine]	≤ 1
Cc1nnc(Nc2nc3cc(C(F)(F)F)c(Cl)cc3[nH]2)[nH]1 [Example 153, 6-Chloro-N-(5-methyl-4H-1,2,4-triazol-3-yl)-5-(trifluoromethyl)-1H-benzo[d]imidazol-2-amine]	≤ 10
Clc1ccc2nc(Nc3nnc(C4CC4)o3)oc2c1 [Example 175, 6-Chloro-N-(5-cyclopropyl-1,3,4-oxadiazol-2-yl)benzo[d]ox-azol-2-amine]	≤ 0.1
Cc1nnc(Nc2nc3cncc(Cl)c3o2)o1 [Example 64, 7-Chloro-N-(5-methyl-1,3,4-oxadiazol-2-yl)oxazolo[4,5-c]pyridin-2-amine]	≤ 10
Clc1ccc2oc(Nc3nc4cnccc4o3)nc2c1 [Example 164, N-(5-Chlorobenzo[d]oxazol-2-yl)oxazolo[4,5-c]pyridin-2-amine]	≤ 0.1
COC(=O)c1ccc2oc(Nc3nnc(C)o3)nc2c1 [Example 44, Methyl 2-((5-methyl-1,3,4-oxadiazol-2-yl)amino)benzo[d]oxazole-5-carboxylate]	≤ 0.1
O=C(NC1CC1)c1csc(Nc2nc3cc(Cl)ccc3o2)n1 [Example 17, 2-((5-Chlorobenzo[d]oxazol-2-yl)amino)-N-cyclopropylthiazole-4-carboxamide]	≤ 1
Cc1nnc(Nc2nc3c(F)cccc3[nH]2)o1 [Example 87, N-(4-Fluoro-1H-benzo[d]imidazol-2-yl)-5-methyl-1,3,4-oxadiazol-2-amine]	≤ 1
CNC(=O)c1csc(Nc2nc3cc(C(F)(F)F)ccc3o2)n1 [Example 2, N-Methyl-2-((5-(trifluoromethyl)benzo[d]oxazol-2-yl)amino)thiazole-4-carboxamide]	≤ 1
CN(c1nc2ccccc2o1)c1nc2cnc(C(F)(F)F)cc2o1 [Example 169, N-(benzo[d]oxazol-2-yl)-N-methyl-6-(trifluoromethyl)oxazolo[4,5-c]pyridin-2-amine]	≤ 100
CC(=O)N(C)c1ccc2nc(Nc3nnco3)oc2c1 [Example 215, N-(2-((1,3,4-Oxadiazol-2-yl)amino)benz-o[d]oxazol-6-yl)-N-methylacetamide]	≤ 100
CN1CCC[C@H]1c1nnc(Nc2nc3cc(C(F)(F)F)ccc3o2)o1 [Example 126, (S)-N-(5-(1-Methylpyrrolidin-2-yl)-1,3,4-oxadiazol-2-yl)-5-(trifluoromethyl)benzo[d]oxazol-2-amine]	≤ 1
FC(F)(F)c1ccc2nc(Nc3nnco3)oc2c1 [Example 114, N-(1,3,4-Oxadiazol-2-yl)-6-(trifluoromethyl)benzo[d]oxazol-2-amine]	≤ 1
COC1CCN(Cc2nnc(Nc3nc4cc(C(F)(F)F)ccc4o3)o2)C1 (stereo not drawn) [Example 75, N-(5-((3-Methoxypyrrolidin-1-yl)methyl)-1,3,4-oxadiazol-2-yl)-5-(trifluoromethyl)benzo[d]oxazol-2-amine]	≤ 1
Cc1nnc(Nc2nc3cc(C(F)(F)F)ccc3o2)s1 [Example 111, N-(5-Methyl-1,3,4-thiadiazol-2-yl)-5-(trifluoromethyl)benzo[d]oxazol-2-amine]	≤ 1
Cc1nnc(Nc2nc3cccc(Cl)c3o2)o1 [Example 39, 7-Chloro-N-(5-methyl-1,3,4-oxadiazol-2-yl)benzo[d]oxazol-2-amine]	≤ 1
Cc1nnc(Nc2nc3ccc(Cl)cc3o2)[nH]1 [Example 122, 6-Chloro-N-(5-methyl-4H-1,2,4-triazol-3-yl)benzo[d]oxazol-2-amine]	≤ 10
NC(=O)c1nnc(Nc2nc3ccc(Cl)cc3o2)o1 [Example 200, 5-((6-Chlorobenzo[d]oxazol-2-yl)amino)-1,3,4-oxadiazole-2-carboxamide]	≤ 100
Cc1nnc(Nc2nc3ccc(F)cc3o2)o1 [Example 54, 6-Fluoro-N-(5-methyl-1,3,4-oxadiazol-2-yl)benzo[d]oxazol-2-amine]	≤ 1
CC(C)c1ccc2nc(Nc3nnco3)oc2c1 [Example 211, 6-Isopropyl-N-(1,3,4-oxadiazol-2-yl)benzo[d]oxa-zol-2-amine]	≤ 1
Clc1cc(Cl)c2nc(Nc3nnc(CN4CCCC4)[nH]3)oc2c1 [Example 129, 4,6-diChloro-N-(5-(pyrrolidin-1-ylmethyl)-4H-1,2,4-triazol-3-yl)benzo[d]oxazol-2-amine]	≤ 1

Compound	IC50 [µM]
Cn1ccc(Nc2nc3cc(C(F)(F)F)ccc3o2)n1 [Example 38, N-(1-Methyl-1H-pyrazol-3-yl)-5-(trifluoromethyl)benzo[d]oxazol-2-amine]	≤ 10
Clc1ccc2nc(Nc3nnc(N4CCCC4)o3)oc2c1 [Example 198, 6-Chloro-N-(5-(pyrrolidin-1-yl)-1,3,4-oxadiazol-2-yl)benzo[d]oxa-zol-2-amine]	≤ 10
Cc1nnc(Nc2nc3c(C(F)(F)F)cccc3o2)o1 [Example 118, N-(5-Methyl-1,3,4-oxadiazol-2-yl)-4-(trifluoromethyl)benzo[d]oxazol-2-amine]	≤ 10
Cc1cc2nc(Nc3nnco3)oc2cc1F [Example 203, 6-Fluoro-5-methyl-N-(1,3,4-oxadiazol-2-yl)benzo[d]oxa-zol-2-amine]	≤ 0.1
N#Cc1nnc(Nc2nc3ccc(Cl)cc3o2)o1 [Example 217, 5-((6-Chlorobenzo[d]oxazol-2-yl)amino)-1,3,4-oxadiazole-2-carbonitrile]	≤ 0.1
NC(=O)c1nnc(Nc2nc3ccc(F)cc3o2)o1 [Example 201, 5-((6-Fluorobenzo[d]oxazol-2-yl)amino)-1,3,4-oxadiazole-2-carboxamide]	≤ 100
N#Cc1nnc(Nc2nc3cc(F)ccc3o2)o1 [Example 219, 5-((5-Fluorobenzo[d]oxazol-2-yl)amino)-1,3,4-oxadiazole-2-carbonitrile]	≤ 1
Clc1ccc2nc(Nc3nncs3)oc2c1 [Example 151, 6-Chloro-N-(1,3,4-thiadiazol-2-yl)benzo[d]oxazol-2-amine]	≤ 1
Clc1ccc2nc(Nc3nnco3)[nH]c2c1 [Example 91, N-(6-Chloro-1H-benzo[d]imidazol-2-yl)-1,3,4-oxadiazol-2-amine]	≤ 100
CCOC(=O)c1noc(Nc2nc3ccc(Cl)cc3o2)n1 [Example 216, Ethyl 5-((6-chlorobenzo[d]oxazol-2-yl)amino)-1,2,4-oxadiazole-3-carboxylate]	≤ 1
Clc1ccc2oc(Nc3nc4ccccc4o3)nc2c1 [Example 162, N-(Benzo[d]oxazol-2-yl)-5-chlorobenzo[d] oxazol-2-amine]	≤ 0.1
Nc1ccc2nc(Nc3nnco3)oc2c1 [Example 195, N^2-(1,3,4-oxadiazol-2-yl)benzo[d]oxazole-2,6-diamine]	≤ 10
CCOC(=O)c1csc(Nc2nc3cc(C(F)(F)F)ccc3o2)n1 [Example 8, Ethyl 2-((5-(trifluoromethyl)benzo[d]oxazol-2-yl)amino)thiazole-4-carboxylate]	≤ 1
Cc1noc(Nc2nc3cc(C(F)(F)F)ccc3o2)n1 [Example 31, N-(3-Methyl-1,2,4-oxadiazol-5-yl)-5-(trifluoromethyl)benzo[d]oxazol-2-amine]	≤ 1
O=C(Nc1cccc(Cl)c1)c1csc(Nc2nc3cc(C(F)(F)F)ccc3o2)n1 [Example 10, N-(3-Chlorophenyl)-2-((5-(trifluoromethyl)benzo[d]oxazol-2-yl)amino)thiazole-4-carboxamide]	≤ 1
CC(C)NC(=O)c1csc(Nc2nc3cc(C(F)(F)F)ccc3o2)n1 [Example 4, N-Isopropyl-2-((5-(trifluoromethyl)benzo[d]oxazol-2-yl)amino)thiazole-4-carboxamide]	≤ 1
Cc1cc(Nc2nc3cc(C(F)(F)F)c(Cl)cc3o2)no1 [Example 42, 6-Chloro-N-(5-methylisoxazol-3-yl)-5-(trifluoromethyl)benzo[d]oxazol-2-amine]	≤ 0.1
CC1CCN(Cc2nnc(Nc3nc4cc(C(F)(F)F)ccc4o3)o2)C1 (stereo not drawn) [Example 78, N-(5-((3-methylpyrrolidin-1-yl)methyl)-1,3,4-oxadiazol-2-yl)-5-(trifluoromethyl)benzo[d]oxazol-2-amine]	≤ 1
COc1cc2oc(Nc3nnco3)nc2cc1F [Example 206, 5-Fluoro-6-methoxy-N-(1,3,4-oxadiazol-2-yl)benzo[d]oxa-zol-2-amine]	≤ 1
O=C(NC1CC1)c1csc(Nc2nc3cc(F)ccc3o2)n1 [Example 18, N-Cyclopropyl-2-((5-fluorobenzo[d]oxazol-2-yl)amino)thiazole-4-carboxamide]	≤ 1
Clc1ccc2nc(Nc3nnc(C4CCCO4)o3)oc2c1 (stereo not drawn) [Example 213, 6-Chloro-N-(5-(tetrahydrofuran-2-yl)-1,3,4-oxadiazol-2-yl)benzo[d]oxa-zol-2-amine]	≤ 0.1
NC(=O)c1nnc(Nc2nc3cc(F)ccc3o2)o1 [Example 202, 5-((5-Fluorobenzo[d]oxazol-2-yl)amino)-1,3,4-oxadiazole-2-carboxamide]	≤ 200
